Key:
[1] = cited from earlier work
[2] = test system: DU-145 prostate cancer cell line; experiment: Cisplatin sensitivity of DU-145 cells with DEA (MTT); assay type: cell-based; settings: increasing cisplatin, 48 hours, presence or absence of 10 μM DEA
Experimental: (§1) The cells were seeded into 96-well plates at a starting density of 10^4 cells per well and cultured overnight before DEA was added to the medium for 24 h and 48 h. The medium was changed to a fresh one containing 0.5% of 3-[4,5-dimethylthiazol-2-yl]-2,5-diphenyl-tetrazolium bromide (MTT+) for an additional 3 hours, then the MTT+ reaction was terminated by adding HCl to 10 mM final concentration. The amount of blue formazan dye formed from MTT+ was proportional to the number of live cells, and was determined with an Anthos Labtech 2010 ELISA reader at 550 nm. All experiments were run in at least 4 replicates and repeated 3 times.
DU-145 cells were exposed to increasing concentrations of cisplatin 48 hours in presence or absence of 10 μM DEA. Viability of the cells was detected by the MTT method. Untreated cells served as controls.

[3] = test system: MCF 7 breast cancer cells; experiment: Radiotherapy plus DEA, MTT viability, MCF 7; assay type: cell-based; settings: 2Gy, 24, 48 and 72 hours, increasing DEA
Experimental: as §1
MCF 7 cells were exposed to 2Gy irradiation for 24, 48 and 72 hours in presence or absence of increasing concentration of DEA. Viability of the cells was detected by the MTT method. Untreated cells served as controls.

[4] = test system: T24/83 human urinary bladder carcinoma cell line; experiment: Colony formation assay, T24; assay type: cell-based; settings: 7 days; 500 nM-3 μM
Experimental: Cells were trypsinized and plated in triplicate into 6-well plates at 500 cells/well. Cells were treated with different concentration of Dea. After 7 days of incubation, cells were washed and stained with Coomassie-blue, and the colonies containing more than 50 cells were counted. The number of colonies were determined and normalized to the number of colonies in controls.
To assess the recovery ability of cells that survived treatment, long-term (7 days) colony formation assay was performed.
Untreated cells served as controls. The results are mean±SEM of 3 independent experiments performed in at least quadruplicate. p<0.01 compared to the corresponding control group. The data shown on FIG. 5 provide evidence that DEA can be useful to treat bladder cancer.

GSK-3β = experiment: Western blot of GSK-3β phosphorylation; assay type: cell-based, human; settings: 5-10-15 μM, 6 hours; T24, B16F10 cell lines
Experimental: 10^6 cells were seeded into regular plates and treated as for the cell viability assay. Cells were harvested at intervals in a chilled lysis buffer containing 0.5 mM sodium-metavanadate, 1 mM ethylenediaminetetraacetic acid (EDTA) and protease inhibitor cocktail in phosphate-buffered saline (PBS). Probes were boiled and subjected to 10% sodium dodecyl sulphate polyacrylamide gel electrophoresis then transferred to nitrocellulose membranes. The membranes were blocked in 5% low fat milk for 1.5 h at room temperature then exposed to primary antibodies at 4° C. overnight in blocking solution. Appropriate horseradish peroxidase-conjugated secondary antibodies were used at a 1:5000 dilution (anti-mouse and anti-rabbit IgGs; Sigma-Aldrich, Steinheim, Germany) and visualized by enhanced chemiluminescence (Amersham Biosciences, Piscataway, N.J., USA). All experiments were repeated 3 times.
To determine the downstream consequences of DEA treatment, we examined the phosphorylation status of AKT (protein kinase B), GSK-3β and p42/44 mitogen-activated protein kinase (MAPK) (ERK1/2) by immunoblotting in T24 (human urinary bladder carcinoma), B16F10 (mice melanoma) cell lines. Cells were cultured in the presence of 5-10-15 μM DEA for 6 hours. The cells were prepared and western blot analysis was carried out to perform both phosphorylated and non-phosphorylated forms of the previously listed proteins. […]

[5] = after administration of amiodarone; cited from earlier work
[6] = test system: 4T1 (mouse mammary carcinoma) cells; experiment: MTT cell viability assay, 4T1; assay type: cell-based; settings: 24 h and 48 h; 2.5, 5, 7.5 or 10 μM; vs untreated control
Experimental: The cells were seeded into 96-well plates at a starting density of 10^4 cells per well and cultured overnight before DEA was added to the medium for 24 h and 48 h. […] The amount of blue formazan dye formed from MTT+ was proportional to the number of live cells, and was determined with an Anthos Labtech 2010 ELISA reader at 550 nm. All experiments were run in at least 4 replicates and repeated 3 times. The effect of desethylamiodarone was measured in T24 (human urinary bladder carcinoma), A549 (human lung adenocarcinoma epithelial), B16F10 (mice melanoma), HeLa (human cervix adenocarcinoma), 4T1 (mouse mammary carcinoma) cell lines. Cells were treated with increasing concentrations of desethylamiodarone for 24 and 48 h. Cell growth was assessed by measuring metabolic activity, which reflects viability in the MTT-test in the course of 24 h, 48 h of continued exposure to desethylamiorarone. The untreated cells served as negative controls. The viability of the cells, was lower in all DEA-treated than in the control group, with the difference being statistically significant. […] 4T1 cells were incubated with the indicated concentrations (2.5, 5, 7.5 or 10 μM) of desethylamiodarone for 24 h and 48 h and cell viability was measured by MTT assay (filled bars). Untreated cells served as controls. Data represent means±S.E.M. of three independent experiments, each running in four replicates.

[7] = cited from earlier work; remark: listed apart in the source
[8] = test system: T24 (human urinary bladder carcinoma) cells; experiment: MTT cell viability assay, T24; assay type: cell-based; settings: 24 h and 48 h; 5, 10, 15 and 15 μM; vs untreated control
Experimental: as §1
The effect of desethylamiodarone was measured in T24 (human urinary bladder carcinoma), A549 (human lung adenocarcinoma epithelial), B16F10 (mice melanoma), HeLa (human cervix adenocarcinoma), 4T1 (mouse mammary carcinoma) cell lines. Cells were treated with increasing concentrations of desethylamiodarone for 24 and 48 h. Cell growth was assessed by measuring metabolic activity, which reflects viability in the MTT-test in the course of 24 h, 48 h of continued exposure to desethylamiorarone. The untreated cells served as negative controls. […]
T24 cells were exposed for 24 h (A), 48 h (B) to […], 10 μM, 15 μM and 15 μM desethylamiodarone (filled bars). Viability of the cells was detected by the MTT+ method. […]

Structure (SMILES): CCCCc1oc2ccccc2c1C(=O)c1cc(I)c(OCCNCC)c(I)c1 [DEA, (2-butyl-3-benzofuranyl)[4-[2-(ethylamino)ethoxy]-3,5-diiodophenyl]-methanone]
- Plasma protein binding [1]: strongly bound to plasma proteins
- Cisplatin sensitivity of DU-145 cells (MTT) [2]: sensitizes DU-145 prostate cancer cells for cisplatin
- Radiosensitization, viability of MCF 7 (MTT) [3]: sensitize MCF 7 breast cancer cells to irradiation
- Colony formation, T24 [4]: significant decrease in the number and the size of colonies
- GSK-3β phosphorylation (GSK-3β): decreased the phosphorylation of GSK-3β
- Concentration in the lungs [5]: can reach mM concentrations
- Viability of 4T1 cells (MTT) [6]: Significantly different from control group at p<0.05
- Concentration in patient plasma ([7]; after amiodarone in therapeutic doses): 1.7 to 4.5 µM
- Mean elimination half-life ([7]; in vivo): 40 days
- Viability of T24 cells (MTT) [8]: Significantly different from control group at p<0.01
